The values that follow come from PMC8341946, “Wheat pathogen Zymoseptoria tritici N-myristoyltransferase inhibitors: on-target antifungal activity and an unusual metabolic defense mechanism” (RSC Chemical Biology, 2020).

For test [1], the target named is T1, ZtNMTΔ99 (Zymoseptoria tritici, UniProt F9XBB7). Description: ZtNMT IC50 assay (CPM, enzymatic). The test is classed as biochemical. The source says:
As the peptide substrate we used an octapeptide derived from the N-terminus of F9X1I2 (Z. tritici predicted homolog of ADP-ribosylation factor 1, ARF1), which we hypothesized would be natively myristoylated in vivo.
Fig. 1 ZtNMT enzymatic activity and structure. […] The CPM reagent enables fluorogenic readout of the reaction rate based on the generation of coenzyme A thiol. […] (D) ZtNMT homology model generated using Swiss Model[26] based on a reported A. fumigatus NMT X-Ray structure 4UWI[27] was aligned to HsNMT1 (PDB: 5MU6, in transparent grey). […] (E) A map of ligand interactions between docked IMP-1088 and its induced fit generated ZtNMT receptor protein residues.
The assay was adapted from a previous publication.[25] […] Accumulation of fluorescence signal at 470 nm was measured at one-minute intervals during the first 20 minutes of the reaction. Rates of the enzymatic reaction were calculated from the linear range of the resulting fluorescence over time curve using GraphPad Prizm 5. Then, sigmoidal dose–response (variable curve) fitting was applied to the data to obtain IC50 values. The assay was performed with at least 2 replicates, mean and confidence intervals are reported.

Test [2] has as its system HsNMT1. The settings on record: cited from earlier work; for IC50: Table S1, ref SI refs 1-7 as given with each inhibitor name; for Ki: Table S1, cells marked (Ki), ref SI refs 3, 5, 6 as given with each inhibitor name, read-out: HsNMT1 IC50 (µM), value marked (Ki).
Test [3] deals with Z. tritici. As to the kind of experiment: Anti-proliferative EC50 assay (MTS viability). The test is classed as cell-based, Zymoseptoria tritici.
Test [4] has as its target T1, ZtNMTΔ99. In kind it is biochemical. The following applies: in the presence of 32 μM myristoyl-CoA; read-out: KM(peptide).
Method: ZtNMT characterization. KM and Vmax constants measurements were performed at two
ZtNMT concentrations: 100 ng/ml and 200 ng/ml.
B) ZtARF1 Km and Vmax measured
The kinetic constants for both NMT substrates in
Test [5] relates to Z. tritici culture. Description: Z. tritici culture viability after 4 h treatment (microscope). The test is classed as cell-based, Zymoseptoria tritici. The settings on record: for culture phenotype under microscope: 4 h.
Setting [6] is: Table S1, enzymatic CPM assay, read-out: IC50.
[7] abbreviates: Table S1, viability MTS assay, read-out: EC50.

Where two headings read alike, the source gives them in different places. Some results are limits rather than exact numbers.

What is called IC50 is the concentration that gives 50% inhibition. A word on the EC50: it is the concentration at which the effect is half-maximal. Broadly, the Ki is the dissociation constant of the complex between target and ligand, obtained from inhibition or displacement. For orientation: Km means the concentration of substrate that gives half-maximal velocity.

T1 sequence (F9XBB7 entry or part of it, stated change not applied): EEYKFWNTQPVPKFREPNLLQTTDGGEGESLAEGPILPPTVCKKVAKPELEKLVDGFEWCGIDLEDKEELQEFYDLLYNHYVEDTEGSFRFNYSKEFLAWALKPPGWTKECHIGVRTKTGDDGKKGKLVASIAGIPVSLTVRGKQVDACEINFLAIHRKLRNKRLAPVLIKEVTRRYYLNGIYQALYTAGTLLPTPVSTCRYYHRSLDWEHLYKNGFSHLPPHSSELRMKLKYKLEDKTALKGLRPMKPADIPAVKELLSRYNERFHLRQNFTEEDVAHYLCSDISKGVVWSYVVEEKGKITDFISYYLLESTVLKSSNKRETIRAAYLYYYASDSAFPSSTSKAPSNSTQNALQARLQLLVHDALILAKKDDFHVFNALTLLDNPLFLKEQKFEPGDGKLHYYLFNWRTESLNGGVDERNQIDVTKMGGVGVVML

As for `Cc1nn(C)c(C)c1CCOc1cc(F)ccc1-c1ccc2nnc(C3CCCN3)n2c1` (centres unmarked) [IMP-1090], the IC50 is 22000 nM in test [1] (setting [6]) and 2590 nM in test [2].

For the molecule `Cc1nn(C)c(C)c1NS(=O)(=O)c1c(Cl)cc(-c2ccnc(N3CCNCC3)c2)cc1Cl` [IMP-366, reference compound], the midpoint of inhibition in test [1], the IC50, lay at 50 nM. In test [3] (Zymoseptoria tritici, Table S1, viability MTS assay), this molecule showed an EC50 of 110 µM.

With `Cc1nn(C)c(C)c1Cc1nnc(-c2cc(Cl)ccc2OC2CCNCC2)o1` [IMP-329], the concentration for half-maximal inhibition (IC50) in test [1] (setting [6]) came to 870 nM. In addition, the Ki in test [2] was 0.02 µM. Further, in test [3] (setting [7]), the concentration giving a half-maximal response (EC50) was determined as 280 µM.

Take `COc1cc(CCOC(=O)c2sc3ccccc3c2OC2CCNCC2)cc(OC)c1` [IMP-277]: in test [1] (setting [6]), the IC50 was above 300000 nM. Further, the inhibition constant (Ki) in test [2] was 0.031 µM.

Take `CNCc1nn(C)c2ccc(-c3cccc(F)c3OCCc3c(C)nn(C)c3C)cc12` [IMP-1036]: the values for the IC50 in test [1] (setting [6]) and in test [2] were 30 nM and 16 nM, respectively.

Consider “NH2-GLTFSKLF-OH (H-GLTFSKLF-OH) [ZtARF1 peptide, octapeptide substrate derived from the N-terminus of F9X1I2 (Z. tritici ARF1 homolog)]”, for which, in test [4], the Km came out at 2730 nM.

`Cc1nn(C)c(C)c1CCOc1c(F)cccc1-c1ccc2ncc(CN(C)C)n2c1` [IMP-1131]: the IC50 in test [1] (setting [6]) is 2400 nM; in test [2], 2.4 nM.

As to `Cc1nn(C)c(C)c1CCOc1c(F)cccc1-c1ccc2c(c1)c(CN)nn2C` [IMP-1034], the IC50 in test [1] (setting [6]) is 32 nM; in test [2] it was 5 nM.

`CNCc1nn(C)c2ccc(-c3ccc(F)c(F)c3OCCc3c(C)nn(C)c3C)cc12` [IMP-1089]: the values for the concentration for half-maximal inhibition (IC50) in test [1] (setting [6]) and in test [2] were 6.7 nM and below 1 nM, respectively. Besides, the concentration for a half-maximal effect (EC50) in test [3] (setting [7]) amounted to 46 µM.

Consider `CNCc1cnc2ccc(-c3ccc(F)cc3OCCc3c(C#N)nn(C)c3C)cn12` [IMP-1195], for which the IC50 in test [1] (setting [6]) and in test [2] was below 1 nM each time.

With `Cc1nn(C)c(C)c1CCOc1cc(F)ccc1-c1ccc2nnc(C3CNC3)n2c1` [IMP-1091], the IC50 was 2100 nM in test [1] (setting [6]) and 56 nM in test [2].

Consider `CNCc1nnc2ccc(-c3ncccc3OCCc3c(C)nn(C)c3C)cn12` [IMP-1093], for which the IC50 was above 300000 nM in test [1] (setting [6]) and 7390 nM in test [2].

For `Cc1nn(C)c(C)c1CCOc1cc(F)ccc1-c1ccc2[nH]nc(CN(C)C)c2c1` [IMP-917], the IC50 was 160 nM in test [1] (setting [6]) and 13 nM in test [2].

Take `N[C@H](CC(=O)N1C[C@H](CO)[C@@H](c2ccc(Cl)c(NC(=O)Cc3ccc(F)cc3)c2)C1)Cc1ccc(Cl)cc1` [IMP-162]: the IC50 in test [1] stood at 1900 nM. In addition, the EC50 is around 20 µM in test [3] (Zymoseptoria tritici, Fig. 1B, Z. tritici cell viability, MTS, 40 h, read-out: EC50) and 18 µM in test [3] (Zymoseptoria tritici, Table S1, viability MTS assay, read-out: EC50). Further, the “culture phenotype under microscope” value is given as “phenotype consistent with cell death” in test [5] (24 μM and 48 μM); “most cells appear dead” in test [5] (96 μM). For the same molecule, the “effect on cell viability” value in test [5] (4 h treatment, logarithmic growth phase) is on record as “kill Z. tritici culture”.

`CNCc1nnc2ccc(-c3ccc(F)cc3OCCc3c(C(=O)N4CCCC4)nn(C)c3C)cn12` [IMP-1112]: the IC50 was 420 nM in test [1] (setting [6]) and 19.8 nM in test [2].

Turning to `Cc1nn(C)c(C)c1CCOc1c(F)cccc1-c1ccc2c(c1)c(CN(C)C)nn2C` [IMP-1031], the 50% inhibitory concentration (IC50) in test [1] (setting [6]) is 16 nM; in test [2], 4.6 nM. In test [3] (setting [7]), the EC50 worked out at 51 µM.

Regarding `Cc1c(CCOc2cc(F)ccc2-c2ccc3nnc(C4CNC4)n3c2)c(C(=O)N(C)C)nn1C` [IMP-1100], the values for the IC50 in test [1] (setting [6]) and in test [2] were 16 nM and 1 nM, respectively. Besides, the EC50 in test [3] (setting [7]) was above 500 µM.

For `CNCc1nnc2ccc(-c3ccc(F)cc3OCCc3c(C(F)(F)F)nn(C)c3C)cn12` [IMP-1111], the values for the 50% inhibitory concentration (IC50) in test [1] (setting [6]) and in test [2] were 700 nM and 6.5 nM, respectively.

Regarding `CNCc1cnc2ccc(-c3ccc(F)cc3OCCc3c(C(N)=O)nn(C)c3C)cn12` [IMP-1179], the half-maximal inhibitory concentration (IC50) in test [1] (setting [6]) is 280 nM; in test [2], 5.6 nM.

Consider `CNCc1cnc2ccc(-c3ccc(F)cc3OCCc3c(C)nn(C)c3C)cn12` [IMP-1097], for which the half-inhibitory concentration (IC50) in test [1] (setting [6]) was 200 nM; in test [2], 1.9 nM.

For `Cc1c(CCOc2cc(F)ccc2-c2ccc3ncc(CN(C)C)n3c2)c(C(=O)N(C)C)nn1C` [IMP-1134], the IC50 in test [1] (setting [6]) and in test [2] was below 1 nM each time. For the same molecule, in test [3] (setting [7]), the EC50 was determined as 27 µM.

As to `CNCc1nnc2ccc(-c3ccc(F)cc3OCCc3c(C(=O)N(C)C)nn(C)c3C)cn12` [IMP-1094], the IC50 in test [1] (setting [6]) was 86 nM; in test [2] it was 7 nM.

As for `CNCCc1cnc2ccc(-c3ccc(F)cc3OCCc3c(CO)nn(C)c3C)cn12` [IMP-1185], the concentration for half-maximal inhibition (IC50) in test [1] (setting [6]) was 4000 nM; in test [2], 25.8 nM.

Consider `CNCCc1cnc2ccc(-c3ccc(F)cc3OCCc3c(C(=O)N(C)C)nn(C)c3C)cn12` [IMP-1124], for which the IC50 in test [1] (setting [6]) was 13 nM; in test [2] it was 0.7 nM.
